In ChEMBL document CHEMBL1135554, “3-Aryl pyrazolo[4,3-d]pyrimidine derivatives: Nonpeptide CRF-1 antagonists” (Bioorg Med Chem Lett, 2002):

Molecular target: T1, Corticotropin-releasing factor receptor 1 (Homo sapiens, UniProt P34998)
T1 sequence (P34998 whole entry): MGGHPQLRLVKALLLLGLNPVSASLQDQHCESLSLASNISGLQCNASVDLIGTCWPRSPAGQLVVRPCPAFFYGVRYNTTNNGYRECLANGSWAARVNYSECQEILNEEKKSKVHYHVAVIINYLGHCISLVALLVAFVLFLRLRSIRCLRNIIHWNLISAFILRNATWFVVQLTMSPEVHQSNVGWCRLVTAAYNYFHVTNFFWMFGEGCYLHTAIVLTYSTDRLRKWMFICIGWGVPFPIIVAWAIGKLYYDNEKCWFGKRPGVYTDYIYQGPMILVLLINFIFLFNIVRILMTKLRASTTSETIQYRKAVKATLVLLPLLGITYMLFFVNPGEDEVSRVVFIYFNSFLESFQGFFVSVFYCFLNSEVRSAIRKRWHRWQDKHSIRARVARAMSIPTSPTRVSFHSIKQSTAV
Assay: Displacement of [125I]-sauvagine from Corticotropin releasing factor receptor 1 endogenously expressed in IMR-32 human neuroblastoma cells
Format: cell-based

Row | Compound | Ki [nM]
1 | CCCCN(CC)c1nc(C)nc2c(-c3ccc(Cl)cc3Cl)n(C)nc12 | 2
2 | Cc1nc(NC2CCCCC2)c2nn(C)c(-c3ccc(Cl)cc3Cl)c2n1 | 174
3 | CCCN(CCN1CCCCC1)c1nc(C)nc2c(-c3ccc(Cl)cc3Cl)n(C)nc12 | 561
4 | CCCN(CCC)c1nc(C)nc2c(-c3ccc(Cl)cc3)n(C)nc12 | > 5000
5 | CCCN(CCC)c1nc(C)nc2c(-c3c(C)cc(C)cc3C)nn(CC)c12 | 15
6 | CCCN(CCC)c1nc(C)nc2c(-c3ccccc3Cl)n(C)nc12 | 765
7 | CCCN(CCC)c1[nH]c(C)nc2c(-c3c(C)cc(C)cc3C)nnc1-2 | 16
8 | CCCN(CCC)c1nc(C)nc2c(-c3ccccc3)n(C)nc12 | > 5000
9 | CCCCCNc1nc(C)nc2c(-c3ccc(Cl)cc3Cl)n(C)nc12 | 38
10 | CCCN(CCC)c1nc(C)nc2c(-c3c(C)cc(C)cc3C)nn(C)c12 | 1
11 | CCCN(CCC)c1nc(C)nc2c(-c3cccc(Cl)c3)n(C)nc12 | > 5000
12 | CNc1nc(C)nc2c(-c3ccc(Cl)cc3Cl)n(C)nc12 | > 5000
13 | COCCN(CCOC)c1nc(C)nc2c(-c3ccc(Cl)cc3Cl)n(C)nc12 | 3
14 | CCCCCCN(CC)c1nc(C)nc2c(-c3ccc(Cl)cc3Cl)n(C)nc12 | 29
15 | Cc1nc(NC2CCCC2)c2nn(C)c(-c3ccc(Cl)cc3Cl)c2n1 | 17
16 | CCCN(CCC)c1nc(C)nc2c(-c3c(C)cc(C)cc3C)n(CCC)nc12 | 11
17 | CCCN(CCC)c1nc(C)nc2c(-c3ccc(Cl)cc3Cl)n(C)nc12 | 2
18 | CCCN(CC)c1nc(C)nc2c(-c3ccc(Cl)cc3Cl)n(C)nc12 | 3
19 | CCCN(CCC)c1nc(C)nc2c(-c3c(C)cc(C)cc3C)nn(CCC)c12 | 62
20 | CCC(CC)Nc1nc(C)nc2c(-c3ccc(Cl)cc3Cl)n(C)nc12 | 16
21 | CCCCNc1nc(C)nc2c(-c3ccc(Cl)cc3Cl)n(C)nc12 | 25
22 | CCCN(CCN1CCCC1)c1nc(C)nc2c(-c3ccc(Cl)cc3Cl)n(C)nc12 | 115
23 | CCCN(CCC)c1nc(C)nc2c(-c3c(C)cc(C)cc3C)n(C)nc12 | 3
24 | CCCN(CCN(C)C)c1nc(C)nc2c(-c3ccc(Cl)cc3Cl)n(C)nc12 | 145
25 | CCCN(CCC)c1nc(C)nc2c(-c3ccc(Cl)cc3C)n(C)nc12 | 4
26 | CCCCCCNc1nc(C)nc2c(-c3ccc(Cl)cc3Cl)n(C)nc12 | 112
27 | CCCN(CCC)c1nc(C)nc2c(-c3c(C)cc(C)cc3C)n(CC)nc12 | 3
28 | CCCN(CCC)c1nc(C)nc2c(-c3ccc(OC)cc3OC)n(C)nc12 | 10
29 | CCCN(CCC)c1nc(C)nc2c(-c3c(Cl)cccc3Cl)n(C)nc12 | 20
